Results taken from patent US7553853B2, “Solid-state montelukast” (Synthon BV, priority 2003, dated 2009).

Key:
[1] = Hygroscopicity of montelukast acid (water content by Karl Fisher apparatus after exposure); format: physicochemical
Experimental: Montelukast acid (50 mg) from Example 2 was exposed to air overnight. The water content was then determined to be 0.07 wt % using a Karl Fisher apparatus.
Montelukast acid (50 mg) from Example 2 was stored for 2 days at 40° C., 75% relative humidity. The water content was then determined to be 0.27 wt % using a Karl Fisher apparatus.

[2] = Hygroscopicity as stated in the description; format: physicochemical; details: solid state

CC(C)(O)c1ccccc1CC[C@@H](SCC1(CC(=O)O)CC1)c1cccc(/C=C/c2ccc3ccc(Cl)cc3n2)c1 [Montelukast acid, [R-(E)]-1-[[[1-[3-[2-(7-chloro-2-quinolinyl)ethenyl]phenyl]-3-[2-(1-hydroxy-1-methylethyl)phenyl]propyl]thio]methyl]cyclopropane acetic acid]
water content ([1]; montelukast acid (50 mg) from Example 2, exposed to air overnight): 0.07 wt %
water content ([1]; montelukast acid (50 mg) from Example 2, stored for 2 days at 40° C., 75% relative humidity): 0.27 wt %
hygroscopicity in comparison to sodium montelukast [2]: reduced hygroscopicity
